Non-standard residues stand in square brackets, D forms with d. Residues, ends and D or L forms follow the SMILES beside them. *: point of attachment. Palmitoyl = CCCCCCCCCCCCCCCC(=O)*; Hyp = O=C(O)[C@@H]1C[C@@H](O)CN1; Cit = NC(=O)NCCC[C@H](N)C(=O)O; Orn = NCCC[C@H](N)C(=O)O; Dab = NCC[C@H](N)C(=O)O; Nva = CCC[C@H](N)C(=O)O; Abu = CC[C@H](N)C(=O)O; Aib = CC(C)(N)C(=O)O; Ahx = NCCCCCC(=O)O; βAla = NCCC(=O)O
How the values were obtained:
[1] = Visual (tube-tapping) assay of gel-forming capability and solubility; format: physicochemical; design: key to Gel-forming ability: Y: can form a liquid gel; N: lacks the ability to efficiently form a liquid gel; details: visual inspection of 11% peptide solutions, tube-tapping, 20 min after mixing
Description: To evaluate the ability of peptides to form gels in situ, we initially determined this tendency qualitatively based on visual examinations of peptide solutions using a tube-tapping method. In addition, we quantitatively determined the viscosity of select peptide solutions using a viscometer (Rheosense Inc; http://www.rheosense.com/products/viscometers) ([Yan and Pochan, 2010]). In the visual assay, aliquots of peptides were dissolved in an aqueous solution (i.e., de-ionized water, saline, or 5% glucose solution). The peptide that dissolved instantly and stayed as a clear solution without obvious macroscopic change in viscosity at 20 min after mixing was considered soluble. If macroscopic particles of peptides remained in the solution at 20 min after mixing, the peptide was considered insoluble.

CLR/RAMP1 receptor = biological target: T1, CLR/RAMP1 receptor (Homo sapiens, UniProt O60894+Q16602); assay: HitHunter cAMP XS+ CALCRL-RAMP1 cAMP assay, antagonist mode; format: cell-based; details: for Maximum response: antagonist mode, β-CGRP at EC80, 10-point curve, duplicate
T1 construct: host or cells: CHO-K1 (cAMP Hunter cell line)
T1 sequence (Q16602 23-461): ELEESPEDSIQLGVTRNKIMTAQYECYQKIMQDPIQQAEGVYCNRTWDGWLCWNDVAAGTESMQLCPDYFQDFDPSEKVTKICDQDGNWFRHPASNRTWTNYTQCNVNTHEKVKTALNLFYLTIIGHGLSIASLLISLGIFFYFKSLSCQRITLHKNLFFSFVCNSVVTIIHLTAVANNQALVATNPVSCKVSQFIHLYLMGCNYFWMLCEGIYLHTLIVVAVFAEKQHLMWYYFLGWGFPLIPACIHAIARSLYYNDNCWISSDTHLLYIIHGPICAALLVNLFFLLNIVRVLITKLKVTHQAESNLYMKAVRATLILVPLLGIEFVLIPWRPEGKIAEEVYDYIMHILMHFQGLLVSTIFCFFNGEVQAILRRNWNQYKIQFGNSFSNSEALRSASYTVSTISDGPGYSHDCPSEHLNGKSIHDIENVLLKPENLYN
T1 sequence (O60894 27-148): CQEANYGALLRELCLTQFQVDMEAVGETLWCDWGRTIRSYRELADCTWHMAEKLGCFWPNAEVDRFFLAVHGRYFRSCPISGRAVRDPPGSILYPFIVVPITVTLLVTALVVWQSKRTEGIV
Description: The assay of the antagonistic activity of analogs was conducted by the Eurofins Discoverx using the HitHunter cAMP XS + assay as described earlier ([Bradley and McLoughlin, 2009]; [Chang and Hsu, 2019]). The dose-dependent inhibitory effect of antagonists was studied in duplicate, at 10 different concentrations. Determination of the half-maximal inhibitory concentration (IC50) was performed using a 10-point dose-response curve. The starting concentration was 10 μM, and it was serially diluted 3-fold, in DMSO. […] Using the Hit Hunter® assay (CALCRL-RAMP1 cAMP assay in the antagonist mode; https://www.discoverx.com/products/cell-line/cho-k1-calcrl-ramp1-gs-cell-line-95-0164c2), the eight compounds in Table 1 were assayed side-by-side once, and the IC50 was derived based on the standard assay of duplicate samples of a ten-point curve. In this homogenous, non-imaging assay, the activation of CLR/RAMP1 signaling was evaluated using the Enzyme Fragment Complementation (EFC) technology with β-galactosidase (β-Gal) as the functional reporter. The enzyme was split into two complementary portions: an enzyme acceptor and an enzyme donor. The enzyme donor is fused to cAMP and it competes with cAMP generated by cells
For binding to a cAMP-specific antibody. Active β-Gal is formed by complementation of exogenous enzyme acceptor to any unbound enzyme donor-cAMP. The active enzyme then converted a chemiluminescent substrate to generate a signal. Briefly, cAMP Hunter cell lines with the select receptor were expanded from freezer stocks ([Bradley and McLoughlin, 2009]), and cells were seeded in a total volume of 20 μL into 384-well microplates and incubated at 37°C for the appropriate time. […] Intermediate dilution of samples was performed to generate 4X sample in the assay buffer. Before the assay, media was aspirated from cells and replaced with 10 μL 1:1 HBSS/Hepes:cAMP XS + Ab reagent, and 5 μL of 4X compound was added to the cells and incubated for 30 min. […] Vehicle concentration was 1%.
The chemiluminescent signal was read with a PerkinElmer chemiluminescent plate reader. The compound activity was analyzed using a CBIS data analysis suite (ChemInnovation, CA). The percentage inhibition was calculated using the following formula: % Inhibition = 100% x (1 - (mean RLU of test sample - mean RLU of vehicle control)/(mean RLU of EC80 control - mean RLU of vehicle control)). Data were normalized to the maximal and minimal response observed in the presence of EC80 agonist and vehicle.

Row | SMILES | Gel-forming ability [1] | other results
1 | CCCCCCCCCCCCCCCC(=O)N[C@@H](CCCCN)C(=O)N[C@H](C(=O)N[C@@H](CCC(N)=O)C(=O)N[C@@H](CCCCN)C(=O)NC(C)(C)C(=O)N[C@@H](CO)C(=O)N[C@@H](C)C(=O)N1CCC[C@H]1C(=O)N[C@H](C(=O)N[C@@H](CC(=O)O)C(=O)N1CCC[C@H]1C(=O)N[C@@H](CO)C(=O)N[C@@H](CO)C(=O)N1CCC[C@H]1C(=O)N[C@@H](Cc1c[nH]cn1)C(=O)N[C@@H](CO)C(=O)N[C@@H](Cc1ccc(O)cc1)C(N)=O)C(C)C)C(C)C [ADE651A] (Palmitoyl-KVQK[Aib]SAPVDPSSPHSY-NH2) | N | –
2 | CCCCCCCCCCCCCCCC(=O)N[C@@H](CCCCN)C(=O)N[C@H](C(=O)N[C@@H](CCC(N)=O)C(=O)N[C@@H](CCCCN)C(=O)NCCCCCC(=O)N[C@@H](CO)C(=O)N[C@@H](C)C(=O)N1CCC[C@H]1C(=O)N[C@H](C(=O)N[C@@H](CC(=O)O)C(=O)N1CCC[C@H]1C(=O)N[C@@H](CO)C(=O)N[C@@H](CO)C(=O)N1CCC[C@H]1C(=O)N[C@@H](Cc1c[nH]cn1)C(=O)N[C@@H](CO)C(=O)N[C@@H](Cc1ccc(O)cc1)C(N)=O)C(C)C)C(C)C [ADE651B] (Palmitoyl-KVQK[Ahx]SAPVDPSSPHSY-NH2) | N | –
3 | CCCCCCCCCCCCCCCC(=O)N[C@@H](CCCCN)C(=O)N[C@H](C(=O)N[C@@H](CCC(N)=O)C(=O)N[C@@H](CCCCN)C(=O)N[C@@H](CCC)C(=O)N[C@@H](CO)C(=O)N[C@@H](C)C(=O)N1CCC[C@H]1C(=O)N[C@H](C(=O)N[C@@H](CC(=O)O)C(=O)N1CCC[C@H]1C(=O)N[C@@H](CO)C(=O)N[C@@H](CO)C(=O)N1CCC[C@H]1C(=O)N[C@@H](Cc1c[nH]cn1)C(=O)N[C@@H](CO)C(=O)N[C@@H](Cc1ccc(O)cc1)C(N)=O)C(C)C)C(C)C [ADE651C] (Palmitoyl-KVQK[Nva]SAPVDPSSPHSY-NH2) | Y | IC50 (CLR/RAMP1 receptor; CHO-K1 CALCRL-RAMP1 cAMP Hunter cells, human β-CGRP at EC80 (0.37nM), 30 min pre-incubation, 10-point curve from 10 μM, 3-fold dilutions, duplicate samples, assayed side-by-side once, read-out: IC50 for antagonizing CGRP-induced CLR/RAMP1 signaling): 1.3 nM; Maximum response (CLR/RAMP1 receptor): 101 % of positive control; Antagonistic activity toward CGRP-mediated CLR/RAMP1 signaling compared to ADE651 (CLR/RAMP1 receptor; result in words): retained the potent antagonistic activity
4 | CCCCCCCCCCCCCCCC(=O)N[C@@H](CCCCN)C(=O)N[C@H](C(=O)N[C@@H](CCC(N)=O)C(=O)N[C@@H](CCCCN)C(=O)N1C[C@H](O)C[C@H]1C(=O)N[C@@H](CO)C(=O)N[C@@H](C)C(=O)N1CCC[C@H]1C(=O)N[C@H](C(=O)N[C@@H](CC(=O)O)C(=O)N1CCC[C@H]1C(=O)N[C@@H](CO)C(=O)N[C@@H](CO)C(=O)N1CCC[C@H]1C(=O)N[C@@H](Cc1c[nH]cn1)C(=O)N[C@@H](CO)C(=O)N[C@@H](Cc1ccc(O)cc1)C(N)=O)C(C)C)C(C)C [ADE651E] (Palmitoyl-KVQK[Hyp]SAPVDPSSPHSY-NH2) | N | –
5 | CCCCCCCCCCCCCCCC(=O)N[C@@H](CCCCN)C(=O)N[C@H](C(=O)N[C@@H](CCC(N)=O)C(=O)N[C@@H](CCCCN)C(=O)N[C@@H](CCCN)C(=O)N[C@@H](CO)C(=O)N[C@@H](C)C(=O)N1CCC[C@H]1C(=O)N[C@H](C(=O)N[C@@H](CC(=O)O)C(=O)N1CCC[C@H]1C(=O)N[C@@H](CO)C(=O)N[C@@H](CO)C(=O)N1CCC[C@H]1C(=O)N[C@@H](Cc1c[nH]cn1)C(=O)N[C@@H](CO)C(=O)N[C@@H](Cc1ccc(O)cc1)C(N)=O)C(C)C)C(C)C [ADE651G] (Palmitoyl-KVQK[Orn]SAPVDPSSPHSY-NH2) | N | –
6 | CCCCCCCCCCCCCCCC(=O)N[C@@H](CCCCN)C(=O)N[C@H](C(=O)N[C@@H](CCC(N)=O)C(=O)N[C@@H](CCCCN)C(=O)N[C@@H](CC)C(=O)N[C@@H](CO)C(=O)N[C@@H](C)C(=O)N1CCC[C@H]1C(=O)N[C@H](C(=O)N[C@@H](CC(=O)O)C(=O)N1CCC[C@H]1C(=O)N[C@@H](CO)C(=O)N[C@@H](CO)C(=O)N1CCC[C@H]1C(=O)N[C@@H](Cc1c[nH]cn1)C(=O)N[C@@H](CO)C(=O)N[C@@H](Cc1ccc(O)cc1)C(N)=O)C(C)C)C(C)C [ADE651I] (Palmitoyl-KVQK[Abu]SAPVDPSSPHSY-NH2) | N | –
7 | CCCCCCCCCCCCCCCC(=O)N[C@@H](CCCCN)C(=O)N[C@H](C(=O)N[C@@H](CCC(N)=O)C(=O)N[C@@H](CCCCN)C(=O)N[C@@H](CCN)C(=O)N[C@@H](CO)C(=O)N[C@@H](C)C(=O)N1CCC[C@H]1C(=O)N[C@H](C(=O)N[C@@H](CC(=O)O)C(=O)N1CCC[C@H]1C(=O)N[C@@H](CO)C(=O)N[C@@H](CO)C(=O)N1CCC[C@H]1C(=O)N[C@@H](Cc1c[nH]cn1)C(=O)N[C@@H](CO)C(=O)N[C@@H](Cc1ccc(O)cc1)C(N)=O)C(C)C)C(C)C [ADE651K] (Palmitoyl-KVQK[Dab]SAPVDPSSPHSY-NH2) | N | –
8 | NCCCC[C@H](NC(=O)[C@@H](Cc1cc(Br)c(O)c(Br)c1)NC(=O)N1CCC(N2Cc3ccccc3NC2=O)CC1)C(=O)N1CCN(c2ccncc2)CC1 [BIBN4096, reference compound] | – | Maximum response (CLR/RAMP1 receptor): 100.5 % of positive control

The next lines start with results.

Row | Gel-forming ability [1] | SMILES | other results
9 | N | CCCCCCCCCCCCCCCC(=O)N[C@@H](CCCCN)C(=O)N[C@H](C(=O)N[C@@H](CCC(N)=O)C(=O)N[C@@H](CCCCN)C(=O)N[C@@H](CCCNC(N)=O)C(=O)N[C@@H](CO)C(=O)N[C@@H](C)C(=O)N1CCC[C@H]1C(=O)N[C@H](C(=O)N[C@@H](CC(=O)O)C(=O)N1CCC[C@H]1C(=O)N[C@@H](CO)C(=O)N[C@@H](CO)C(=O)N1CCC[C@H]1C(=O)N[C@@H](Cc1c[nH]cn1)C(=O)N[C@@H](CO)C(=O)N[C@@H](Cc1ccc(O)cc1)C(N)=O)C(C)C)C(C)C [ADE651D] (Palmitoyl-KVQK[Cit]SAPVDPSSPHSY-NH2) | –
10 | N | CCCCCCCCCCCCCCCC(=O)N[C@@H](CCCCN)C(=O)N[C@H](C(=O)N[C@@H](CCC(N)=O)C(=O)N[C@@H](CCCCN)C(=O)N[C@@H](CCCC)C(=O)N[C@@H](CO)C(=O)N[C@@H](C)C(=O)N1CCC[C@H]1C(=O)N[C@H](C(=O)N[C@@H](CC(=O)O)C(=O)N1CCC[C@H]1C(=O)N[C@@H](CO)C(=O)N[C@@H](CO)C(=O)N1CCC[C@H]1C(=O)N[C@@H](Cc1c[nH]cn1)C(=O)N[C@@H](CO)C(=O)N[C@@H](Cc1ccc(O)cc1)C(N)=O)C(C)C)C(C)C [ADE651F] | –
11 | Y | CCCCCCCCCCCCCCCC(=O)N[C@@H](CCCCN)C(=O)N[C@H](C(=O)N[C@@H](CCC(N)=O)C(=O)N[C@@H](CCCCNC)C(=O)N[C@@H](CC(C)C)C(=O)N[C@@H](CO)C(=O)N[C@@H](C)C(=O)N1CCC[C@H]1C(=O)N[C@H](C(=O)N[C@@H](CC(=O)O)C(=O)N1CCC[C@H]1C(=O)N[C@@H](CO)C(=O)N[C@@H](CO)C(=O)N1CCC[C@H]1C(=O)N[C@@H](Cc1c[nH]cn1)C(=O)N[C@@H](CO)C(=O)N[C@@H](Cc1ccc(O)cc1)C(N)=O)C(C)C)C(C)C [ADE651L] | –
12 | Y | CCCCCCCCCCCCCCCC(=O)N[C@@H](CCCCN)C(=O)N[C@H](C(=O)N[C@@H](CCC(N)=O)C(=O)N[C@@H](CCCCNC(=O)CCS)C(=O)N[C@@H](CC(C)C)C(=O)N[C@@H](CO)C(=O)N[C@@H](C)C(=O)N1CCC[C@H]1C(=O)N[C@H](C(=O)N[C@@H](CC(=O)O)C(=O)N1CCC[C@H]1C(=O)N[C@@H](CO)C(=O)N[C@@H](CO)C(=O)N1CCC[C@H]1C(=O)N[C@@H](Cc1c[nH]cn1)C(=O)N[C@@H](CO)C(=O)N[C@@H](Cc1ccc(O)cc1)C(N)=O)C(C)C)C(C)C [ADE651O] | –
13 | N | CCCCCCCCCCCCCCCC(=O)N[C@@H](CCCCN)C(=O)N[C@H](C(=O)N[C@@H](CCC(N)=O)C(=O)N[C@@H](CCCCN)C(=O)NCCC(=O)N[C@@H](CO)C(=O)N[C@@H](C)C(=O)N1CCC[C@H]1C(=O)N[C@H](C(=O)N[C@@H](CC(=O)O)C(=O)N1CCC[C@H]1C(=O)N[C@@H](CO)C(=O)N[C@@H](CO)C(=O)N1CCC[C@H]1C(=O)N[C@@H](Cc1c[nH]cn1)C(=O)N[C@@H](CO)C(=O)N[C@@H](Cc1ccc(O)cc1)C(N)=O)C(C)C)C(C)C [ADE651P] (Palmitoyl-KVQK[βAla]SAPVDPSSPHSY-NH2) | –
